The text below walks through data of ChEMBL document CHEMBL1138401, “Novel nucleotide triphosphates as potent P2Y2 agonists with enhanced stability over UTP” (Bioorg Med Chem Lett, 2007).

The target in data set [1] is P2Y purinoceptor 2 (Homo sapiens, UniProt P41231). As to the kind of experiment: Agonist activity at human P2Y2 receptor expressed in human 1321N1 by FLIPR assay. It is filed as functional.
Data set [2] has as its target P2Y purinoceptor 1 (Homo sapiens, UniProt P47900). Put plainly: Agonist activity at human cloned P2Y1 receptor expressed in human 1321N1 by FLIPR assay. It is filed as functional.
Data set [3] concerns the target P2Y purinoceptor 4 (Homo sapiens, UniProt P51582). Put plainly: Agonist activity at human cloned P2Y4 receptor expressed in human 1321N1 by FLIPR assay. It is filed as functional.
The nature of data set [4]: Agonist activity at human cloned P2Y6 receptor expressed in human 1321N1 by FLIPR assay. It is filed as functional.
Data set [5] in a line: Metabolic stability in human bronchial epithelial cells after 120 mins. It is filed as ADME, cell-based, Epithelial cell. Conditions: read-out: Stability.
Data set [6] is described as follows: Metabolic stability in human bronchial epithelial cells after 180 mins. It is filed as ADME, cell-based, Epithelial cell. Conditions: read-out: Stability.

Structures are written as SMILES.

The EC50 is the concentration at which the effect is half-maximal. A low value points to higher potency in that assay.

Sequence of P2Y purinoceptor 4 (P51582 whole entry): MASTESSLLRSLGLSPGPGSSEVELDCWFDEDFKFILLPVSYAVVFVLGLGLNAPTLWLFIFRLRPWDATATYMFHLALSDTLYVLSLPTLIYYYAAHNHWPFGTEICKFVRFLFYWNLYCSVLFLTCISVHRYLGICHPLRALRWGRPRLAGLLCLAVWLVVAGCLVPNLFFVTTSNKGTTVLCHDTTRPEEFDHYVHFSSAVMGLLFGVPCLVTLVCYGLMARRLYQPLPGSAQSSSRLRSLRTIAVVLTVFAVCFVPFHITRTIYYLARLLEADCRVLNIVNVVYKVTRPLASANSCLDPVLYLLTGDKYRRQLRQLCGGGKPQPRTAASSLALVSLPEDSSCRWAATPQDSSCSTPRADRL
Sequence of P2Y purinoceptor 1 (P47900 whole entry): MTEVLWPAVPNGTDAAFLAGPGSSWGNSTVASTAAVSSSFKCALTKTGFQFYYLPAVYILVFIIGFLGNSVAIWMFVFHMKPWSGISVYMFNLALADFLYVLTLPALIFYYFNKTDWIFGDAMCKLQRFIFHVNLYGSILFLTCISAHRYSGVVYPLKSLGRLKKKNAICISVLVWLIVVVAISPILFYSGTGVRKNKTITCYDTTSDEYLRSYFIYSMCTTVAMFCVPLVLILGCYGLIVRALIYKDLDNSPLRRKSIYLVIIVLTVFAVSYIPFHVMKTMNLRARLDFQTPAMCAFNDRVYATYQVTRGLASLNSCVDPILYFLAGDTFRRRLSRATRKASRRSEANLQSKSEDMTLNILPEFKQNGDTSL
Sequence of P2Y purinoceptor 2 (P41231 whole entry): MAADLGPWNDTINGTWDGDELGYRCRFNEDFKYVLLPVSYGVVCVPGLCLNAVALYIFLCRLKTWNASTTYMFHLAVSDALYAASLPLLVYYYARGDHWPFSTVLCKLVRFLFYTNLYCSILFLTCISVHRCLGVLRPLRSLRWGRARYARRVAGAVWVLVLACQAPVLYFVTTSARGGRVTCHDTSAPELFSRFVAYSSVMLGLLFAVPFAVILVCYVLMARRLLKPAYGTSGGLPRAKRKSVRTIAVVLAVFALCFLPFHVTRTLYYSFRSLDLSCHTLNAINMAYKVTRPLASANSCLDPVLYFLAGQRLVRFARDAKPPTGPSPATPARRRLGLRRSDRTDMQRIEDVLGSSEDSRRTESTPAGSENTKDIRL

For the compound `COc1ccc2nc([C@@H]3O[C@H](COP(=O)(O)OP(=O)(O)OP(=O)(O)O)[C@@H](O)[C@H]3O)sc2c1`, the EC50 in data set [1] worked out at 0.042 µM.

With `COc1cccc2sc([C@@H]3O[C@H](COP(=O)(O)OP(=O)(O)OP(=O)(O)O)[C@@H](O)[C@H]3O)nc12`, the response in data set [1] was half-maximal at 0.7 µM (EC50). Compared with the last compound, the EC50 is about 17-fold higher.

In data set [1], `Cc1ccc2oc([C@@H]3O[C@H](COP(=O)(O)OP(=O)(O)OP(=O)(O)O)[C@@H](O)[C@H]3O)nc2c1` came in with an EC50 of 0.39 µM.

Turning to `O=P(O)(O)OP(=O)(O)OP(=O)(O)OC[C@H]1O[C@@H](c2nc3ccccc3s2)[C@H](O)[C@@H]1O`, the EC50 in data set [1] is 0.022 µM; in data set [2], above 20 µM; in data set [3], 4.12 µM; in data set [4] it was above 20 µM. Also, the remaining at 2 h in data set [5] came to 50%. The remaining at 3 h in data set [6] worked out at 20%.

Consider `O=P(O)(O)OP(=O)(O)OP(=O)(O)OC[C@H]1O[C@@H](c2nc3ccc(Cl)cc3s2)[C@H](O)[C@@H]1O`, for which, in data set [1], the EC50 is 0.008 µM. In other words, the single-digit nanomolar range.

In turn, `O=P(O)(O)OP(=O)(O)OP(=O)(O)OC[C@H]1O[C@@H](c2nc3cc(F)ccc3s2)[C@H](O)[C@@H]1O` registered an EC50 in data set [1] of 0.003 µM.

As for `O=P(O)(O)OP(=O)(O)OP(=O)(O)OC[C@H]1O[C@@H](c2nc3cc(C(F)(F)F)ccc3s2)[C@H](O)[C@@H]1O`, the EC50 in data set [1] was 0.01 µM; in data set [2], above 20 µM; in data set [3] it was above 20 µM; in data set [4] it was above 20 µM.

In turn, `Cn1c([C@@H]2O[C@H](COP(=O)(O)OP(=O)(O)OP(=O)(O)O)[C@@H](O)[C@H]2O)nc2ccccc21` returned an EC50 in data set [1] of 0.2 µM. This counts as sub-micromolar.

`O=P(O)(O)OP(=O)(O)OP(=O)(O)OC[C@H]1O[C@@H](c2nc3c(F)cc(Cl)cc3s2)[C@H](O)[C@@H]1O`: the EC50 is 0.007 µM in data set [1], above 20 µM in data set [2], 4.23 µM in data set [3] and above 20 µM in data set [4].

With `O=c1c2cc(F)ccc2ccn1[C@@H]1O[C@H](COP(=O)(O)OP(=O)(O)OP(=O)(O)O)[C@@H](O)[C@H]1O`, the remaining at 2 h in data set [5] is 70%. For the same compound, the remaining at 3 h in data set [6] is 50%.

Turning to `O=c1ccn([C@@H]2O[C@H](COP(=O)(O)OP(=O)(O)OP(=O)(O)O)[C@@H](O)[C@H]2O)c(=O)[nH]1` [URIDINE TRIPHOSPHATE], the values for the EC50 in data set [2] and in data set [4] were above 2 µM and 0.424 µM, respectively.
